Literature values in US20150139938A1, “Methods and Compositions for Improving Pial Collateral Circulation and Treating Blood Clotting Disorders” (Ohio State Innovation Foundation, priority 2012, published 2015).

Test system: stroke-induced lesion in the brain of spontaneously hypertensive rats
Details: orally supplemented, earlier work of the inventors

## CC(C)=CCC/C(C)=C/CC/C(C)=C/CC[C@]1(C)CCc2c(C)c(O)c(C)c(C)c2O1 [αTCT, α-tocotrienol]
  protection against stroke-induced lesion in the brain: protects
